Drawing on US20200129533A1, “PHARMACEUTICAL NANOSUSPENSION FOR THE THERAPY OF HIV INFECTION” (priority 2017, published 2020), this text covers IC50 for 1 compound.

Where two headings read alike, the source gives them in different places.

Common to all, as to type: cell-based
For assay [1], the system named is HIV-1 mutant virus V106A. As to the kind of experiment: Inhibition of replication of HIV-1 mutant virus V106A. Conditions: Human immunodeficiency virus 1, read-out: Average IC50. Here is the method:
(§1) Elsulfavirine/Elpida/VM-1500 (la) is the prodrug of the active compound VM-1500A (1b), a Non-Nucleoside Reverse Transcriptase Inhibitor (NNRTI), which efficiently prevents HIV-1 HXB2 strain replication in the MT-4 cell line. […] 0.6±0.6 nM (G190A), 1.3±0.3 nM (L100I/K103N), and 1.3±0.4 nM (K103N/Y181C)

The test system of assay [2] is HIV-1 HXB2 strain. As to the kind of experiment: Inhibition of HIV-1 HXB2 (wild-type) replication in MT-4 cell line. The protocol:
as §1

Assay [3] deals with HIV-1 mutant virus G190A. As to the kind of experiment: Inhibition of replication of HIV-1 mutant virus G190A. To be noted: Human immunodeficiency virus 1, read-out: Average IC50. The protocol: as §1
Assay [4] relates to HIV-1 mutant virus K103N/Y181C. Put plainly: Inhibition of replication of HIV-1 mutant virus K103N/Y181C. Conditions: Human immunodeficiency virus 1, read-out: Average IC50. The protocol: as §1
Assay [5] deals with HIV-1 mutant virus L100I/K103N. As to the kind of experiment: Inhibition of replication of HIV-1 mutant virus L100I/K103N. Conditions: Human immunodeficiency virus 1, read-out: Average IC50. The protocol:
as §1

In the case of `N#Cc1cc(Cl)cc(Oc2c(Br)ccc(CC(=O)Nc3ccc(S(N)(=O)=O)cc3Cl)c2F)c1` [VM-1500A], the IC50 was found to be 1.2 ± 0.2 nM in assay [1]; 0.74 ng/mL in assay [2] (Human immunodeficiency virus 1, HXB2, MT4, as restated, converted to ng/ml, read-out: effective concentration (IC50)); 1.3 nM in assay [2] (Human immunodeficiency virus 1, HXB2, MT4, as restated, read-out: effective concentration (IC50)); 1.3 ± 0.4 nM in assay [2] (Human immunodeficiency virus 1, MT4, wild-type HXB2 strain, MT-4 cell line, read-out: Average IC50); 0.6 ± 0.6 nM in assay [3]; 1.3 ± 0.4 nM in assay [4]. For the same compound, the IC50 in assay [5] amounted to 1.3 ± 0.3 nM.
